Test results: ChEMBL document CHEMBL1201862, “PubChem BioAssay data set” (2004)
Activity calls are given as the source filed them.

What was measured:
[1] = target: T1, Methionyl-tRNA synthetase, putative (Trypanosoma brucei brucei, UniProt Q38C91); assay type: functional, Trypanosoma brucei brucei strain 927/4 GUTat10.1
[2] = target: T1, Methionyl-tRNA synthetase, putative; assay type: functional, Trypanosoma brucei brucei strain 927/4 GUTat10.1; remark: listed apart in the source
[3] = Counterscreen for inhibitors of Trypanosoma brucei methionyl tRNA synthetase (MetRS): Luminescence-based cell-based high throughput dose response assay to identify compounds that are cytotoxic to Jurkat human T lymphocyte cells.; assay type: functional
[4] = cytotoxicity toward MDA-MB-231 breast cancer cells – cell-based, CellTiter-Glo luminescence, cherry-pick, cytotoxicity control for RAD54 inhibitor project, dose response (AID 651692); assay type: functional
[5] = target: Nuclear receptor subfamily 0 group B member 1 (Homo sapiens, UniProt P51843); test: Luminescence-based cell-based high throughput dose response assay for inhibitors of the orphan nuclear receptor subfamily 0, group B, member 1 (DAX1; NR0B1). [Related pubchem assays (depositor defined):AID504766, AID504790]; assay type: functional
Sequence of Nuclear receptor subfamily 0 group B member 1 (P51843 whole entry): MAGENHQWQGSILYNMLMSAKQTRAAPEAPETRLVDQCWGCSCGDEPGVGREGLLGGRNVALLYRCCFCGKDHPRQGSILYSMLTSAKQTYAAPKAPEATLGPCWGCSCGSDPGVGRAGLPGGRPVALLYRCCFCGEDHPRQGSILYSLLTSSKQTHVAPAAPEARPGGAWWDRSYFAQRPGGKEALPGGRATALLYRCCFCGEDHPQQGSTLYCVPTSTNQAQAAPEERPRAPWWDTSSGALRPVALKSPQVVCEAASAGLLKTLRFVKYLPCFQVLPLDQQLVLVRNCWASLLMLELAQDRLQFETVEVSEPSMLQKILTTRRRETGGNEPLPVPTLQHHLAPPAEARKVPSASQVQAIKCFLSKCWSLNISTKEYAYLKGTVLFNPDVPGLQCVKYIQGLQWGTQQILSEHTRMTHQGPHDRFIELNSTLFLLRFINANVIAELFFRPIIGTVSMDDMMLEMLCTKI

[6] = viability loss in HepG2 hepatoma cells – cell-based, ATP luminescence, cherry-pick, activator set 2, cytotoxicity control, dose response (AID 1053143); assay type: functional
[7] = target: T2, DNA repair and recombination protein RAD54-like (Homo sapiens, UniProt Q92698); test: RAD54 Holliday junction migration blockers – biochemical, fluorescence, cherry-picked samples, dose series, confirmation (AID 651657); assay type: functional
T2 sequence (Q92698 whole entry): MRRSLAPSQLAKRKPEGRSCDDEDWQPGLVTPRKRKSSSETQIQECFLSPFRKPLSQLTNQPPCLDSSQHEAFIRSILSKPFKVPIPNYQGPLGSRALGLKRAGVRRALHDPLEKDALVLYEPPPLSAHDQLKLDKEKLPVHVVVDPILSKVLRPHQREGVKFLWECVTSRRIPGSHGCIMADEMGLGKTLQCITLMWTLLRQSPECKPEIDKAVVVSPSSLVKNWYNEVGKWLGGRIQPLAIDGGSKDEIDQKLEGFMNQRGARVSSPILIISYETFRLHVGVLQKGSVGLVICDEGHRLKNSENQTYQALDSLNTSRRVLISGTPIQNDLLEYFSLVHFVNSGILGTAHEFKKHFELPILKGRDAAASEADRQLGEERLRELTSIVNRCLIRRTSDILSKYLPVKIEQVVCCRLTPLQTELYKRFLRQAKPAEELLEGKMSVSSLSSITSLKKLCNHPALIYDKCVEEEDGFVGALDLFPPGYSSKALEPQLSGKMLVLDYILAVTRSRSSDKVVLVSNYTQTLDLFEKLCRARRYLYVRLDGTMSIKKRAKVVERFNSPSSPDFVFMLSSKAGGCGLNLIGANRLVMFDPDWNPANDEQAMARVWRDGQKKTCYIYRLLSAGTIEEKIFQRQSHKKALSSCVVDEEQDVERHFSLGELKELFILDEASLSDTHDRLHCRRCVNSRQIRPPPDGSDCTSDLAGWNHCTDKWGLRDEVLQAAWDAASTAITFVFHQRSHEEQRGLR

HEK293 = test: cells; assay type: functional, cell-based; settings: Homo sapiens
[8] = anti-trypanosomal activity in BESM host cells – imaging, CA-I/72 strain, bovine embryo skeletal muscle, dry powder, dose response (AID 651885); assay type: functional, cell-based
Mu-type opioid receptor = Mu-type opioid receptor (Homo sapiens, UniProt P35372); assay type: functional, cell-based;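 also: U2OS cells with beta-arrestin recruitment to OPRM1 by beta-gal complementation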
Sequence of Mu-type opioid receptor (P35372 whole entry): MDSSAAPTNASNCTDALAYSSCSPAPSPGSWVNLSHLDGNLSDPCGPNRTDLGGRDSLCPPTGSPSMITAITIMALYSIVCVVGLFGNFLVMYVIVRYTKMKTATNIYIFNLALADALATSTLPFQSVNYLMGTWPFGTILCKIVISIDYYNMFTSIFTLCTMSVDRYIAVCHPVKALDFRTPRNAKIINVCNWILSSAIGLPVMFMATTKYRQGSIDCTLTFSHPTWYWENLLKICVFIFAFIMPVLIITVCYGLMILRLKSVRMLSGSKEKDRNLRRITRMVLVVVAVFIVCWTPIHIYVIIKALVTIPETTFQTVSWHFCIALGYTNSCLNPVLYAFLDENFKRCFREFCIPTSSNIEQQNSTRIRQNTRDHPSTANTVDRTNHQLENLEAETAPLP

[9] = target: 5-hydroxytryptamine receptor 2A (Mus musculus, UniProt P35363); assay type: functional, cell-based;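 also: CHO-K1 cells with tagged receptor and beta-arrestin; agonist potency measured as compound-induced activation of the receptor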
Sequence of 5-hydroxytryptamine receptor 2A (P35363 whole entry): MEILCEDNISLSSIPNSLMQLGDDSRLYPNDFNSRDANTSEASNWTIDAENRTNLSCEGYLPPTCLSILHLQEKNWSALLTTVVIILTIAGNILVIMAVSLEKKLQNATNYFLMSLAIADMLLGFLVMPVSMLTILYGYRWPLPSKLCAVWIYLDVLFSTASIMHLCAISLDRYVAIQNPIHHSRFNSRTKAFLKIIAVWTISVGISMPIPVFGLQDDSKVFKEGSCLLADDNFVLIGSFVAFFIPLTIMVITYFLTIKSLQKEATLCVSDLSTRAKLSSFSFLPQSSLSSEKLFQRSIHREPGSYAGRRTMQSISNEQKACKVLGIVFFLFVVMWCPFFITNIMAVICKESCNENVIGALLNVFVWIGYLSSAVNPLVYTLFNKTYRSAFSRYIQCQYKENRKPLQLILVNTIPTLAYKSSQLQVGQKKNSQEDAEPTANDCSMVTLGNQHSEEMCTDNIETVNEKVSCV

Albumin = Albumin (Bos taurus, UniProt P02769); test: Counterscreen for inhibitors of T-cell receptor (TCR)-CD3 interaction: Fluorescence-based biochemical high throughput dose response assay to identify inhibitors of T-cell receptor (TCR)-CD3 interaction using a TAMRA-labeled BSA probe.; assay type: functional
Sequence of Albumin (P02769 whole entry): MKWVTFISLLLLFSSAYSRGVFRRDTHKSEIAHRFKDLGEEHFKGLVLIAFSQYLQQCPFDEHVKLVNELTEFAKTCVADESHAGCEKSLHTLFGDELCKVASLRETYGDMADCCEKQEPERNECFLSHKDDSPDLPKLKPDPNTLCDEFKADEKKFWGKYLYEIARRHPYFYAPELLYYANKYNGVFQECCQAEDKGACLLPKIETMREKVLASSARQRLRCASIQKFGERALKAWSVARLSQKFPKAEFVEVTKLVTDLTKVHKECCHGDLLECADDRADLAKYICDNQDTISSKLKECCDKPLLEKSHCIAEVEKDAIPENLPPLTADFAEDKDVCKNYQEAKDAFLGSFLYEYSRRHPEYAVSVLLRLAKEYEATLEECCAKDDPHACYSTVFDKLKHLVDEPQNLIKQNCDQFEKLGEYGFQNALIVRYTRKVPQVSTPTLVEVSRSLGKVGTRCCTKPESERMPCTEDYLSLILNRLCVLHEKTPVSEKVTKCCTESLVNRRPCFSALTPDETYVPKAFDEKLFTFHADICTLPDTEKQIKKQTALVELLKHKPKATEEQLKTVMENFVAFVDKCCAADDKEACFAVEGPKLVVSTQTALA

T1 sequence (Q38C91 whole entry): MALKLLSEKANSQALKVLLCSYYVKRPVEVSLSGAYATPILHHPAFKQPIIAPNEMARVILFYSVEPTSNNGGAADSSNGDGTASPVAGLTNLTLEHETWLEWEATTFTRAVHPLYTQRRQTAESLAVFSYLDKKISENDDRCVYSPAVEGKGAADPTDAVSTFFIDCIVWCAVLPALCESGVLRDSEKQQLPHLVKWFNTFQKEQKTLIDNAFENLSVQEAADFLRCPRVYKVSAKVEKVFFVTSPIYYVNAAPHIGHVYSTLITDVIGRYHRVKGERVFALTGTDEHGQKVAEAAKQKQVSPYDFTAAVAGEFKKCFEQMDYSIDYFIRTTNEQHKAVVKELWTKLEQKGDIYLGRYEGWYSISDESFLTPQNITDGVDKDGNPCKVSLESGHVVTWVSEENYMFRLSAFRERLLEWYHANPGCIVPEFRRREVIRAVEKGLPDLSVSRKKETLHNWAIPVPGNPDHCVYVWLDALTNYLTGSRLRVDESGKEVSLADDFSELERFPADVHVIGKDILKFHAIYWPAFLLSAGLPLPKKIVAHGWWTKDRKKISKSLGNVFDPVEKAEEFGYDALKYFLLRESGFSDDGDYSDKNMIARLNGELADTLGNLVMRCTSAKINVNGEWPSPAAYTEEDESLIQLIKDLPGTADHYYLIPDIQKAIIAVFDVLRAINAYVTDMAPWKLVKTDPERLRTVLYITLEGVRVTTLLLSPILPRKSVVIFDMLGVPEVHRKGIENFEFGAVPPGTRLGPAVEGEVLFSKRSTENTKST

**Q.** What does the source list for `Cc1ccc2[nH]c3c(NCCCN4CCCC4=O)ncnc3c2c1`?
**A.** IC50 [1]: 27.9 µM (inactive); IC50 [2]: 23.3 µM (inactive); IC50 [3]: 17.9 µM (inactive)

**Q.** Which results are given for `CCN1C(=O)CCN(C2CCCC2)c2nc(Nc3ccc(C(=O)NC4CCN(C)CC4)cc3OC)ncc21`?
**A.** AC50 [4]: 36.4 µM (active); IC50 [5]: > 67.5 µM (inactive); AC50 [6]: 13 µM (active); AC50 [7]: 39.3 µM (active); IC50 (HEK293): > 67.5 µM (inactive)

**Q.** With `C[C@@H]1CN([C@@H](C)CO)C(=O)c2cccc(NC(=O)c3ccncc3)c2O[C@H]1CN(C)Cc1ccc(C(=O)O)cc1` as the compound, how does the IC50 [8] read?
**A.** 14.1 µM (inactive)

**Q.** Which results are given for `CC(C)(C)C1CCC(OCC(O)CN2CCN(c3ccccn3)CC2)CC1` (configuration not stated)?
**A.** EC50 (Mu-type opioid receptor): 92.5 µM (inactive); EC50 [9]: 548 nM (active)

**Q.** With `CN=C(S)NNC(=O)c1cccn(Cc2ccc(Cl)c(Cl)c2)c1=O` as the compound, how does the IC50 (Albumin) read?
**A.** > 94 µM (inactive)
